Results from patent US20220110917A1 (priority 2018, published 2022).

Key:
[1] = human, in vivo, po
[2] = in vivo, po
[3] = in vivo; cited from earlier work
[4] = oral administration in suspension; cited from earlier work

Oc1noc2c1CCNC2 [gaboxadol, 4,5,6,7-tetrahydroisoxazolo [5,4-c] pyridine-3-ol]
AUC0-∞ Slope (90% CI), dose proportionality [1]: 0.98 (0.95, 1.01) | Cmax Slope (90% CI), dose proportionality [1]: 0.95 (0.88, 1.02) | residual effect on Choice Reaction Time [2]: did not show residual effect | residual effect on Critical Flicker Fusion [2]: did not show residual effect | residual effects on Body Sway [2]: did not show any signs of residual effects | residual effects on Digit symbol substitution test (DSST) [2]: did not show any signs of residual effects | residual effects on Leeds Sleep Evaluation Questionnaire [2]: did not show any signs of residual effects | residual effects on Memory tests [2]: did not show any signs of residual effects | residual effects on Multiple Sleep Latency Test (MSLT) [2]: did not show any signs of residual effects | residual effects on Tracking [2]: did not show any signs of residual effects

CC(=O)[C@H]1CC[C@H]2[C@@H]3CC[C@H]4C[C@H](O)CC[C@]4(C)[C@H]3CC[C@]12C [allopregnanolone, 3α, 5α-tetrahydroprogesterone]
half-life [3]: about 35 minutes

CC(=O)[C@H]1CC[C@H]2[C@@H]3CC[C@H]4C[C@](C)(O)CC[C@]4(C)[C@H]3CC[C@]12C [ganaxolone]
Tmax [4]: 1.2 to 2.5 h | plasma half-life [4]: approximately 20 h

CCN(CC)CCN1C(=O)CN=C(c2ccccc2F)c2cc(Cl)ccc21 [Flurazepam]
residual effect on Choice Reaction Time [2]: showed significant effect | residual effect on Critical Flicker Fusion [2]: showed significant effect
